Reference: BigSolDB 2.1

CCOC(=O)OC1=C(c2cc(C)ccc2C)C(=O)NC12CCC(OC)CC2 (stereo unspecified)
solubility (mole fraction)
Details	278.15 K	283.15 K	288.15 K	293.15 K	298.15 K	303.15 K	308.15 K	313.15 K	318.15 K
in acetone	0.012	0.0151	0.0183	0.0221	0.0267	0.0323	0.0392	0.0472	0.0571
in ethanol	0.00319	0.00386	0.00504	0.00624	0.008	0.0103	0.0132	0.0169	0.0219
in isopropanol	0.00177	0.00232	0.0031	0.00415	0.00543	0.00711	0.00939	0.0125	0.0165
in methanol	0.00534	0.00669	0.00803	0.01	0.0127	0.0159	0.0202	0.0257	0.0321
